Assay results: patent US12215100B2, “Anticancer compounds” (Pharma Mar, S.A., priority 2018, dated 2025)

Columns and labels:
Format in all cases: cell-based, human
A549 = assay: SRB colorimetric cytotoxicity assay, A549; conditions: Homo sapiens, lung carcinoma (NSCLC)
Source text: (§1) The aim of this assay is to evaluate the in vitro cytostatic (ability to delay or arrest tumor cell growth) or cytotoxic (ability to kill tumor cells) activity of the samples being tested.
(§2) A colorimetric assay, using sulforhodamine B (SRB) reaction has been adapted to provide a quantitative measurement of cell growth and viability (following the technique described by V. Vichai and K. Kirtikara (2006) Nature Protoc. 1, 1112-1116.)
(§3) This form of assay employs 96-well cell culture microplates. All the cell lines used in this study were obtained from the American Type Culture Collection (ATCC), unless otherwise indicated, and derive from different types of human cancer.
(§4) Cells were maintained in Dulbecco's Modified Eagle Medium (DMEM) (for A549, HT-29 and MDA-MB-231) or RPMI (for PSN-1) supplemented with 10% Fetal Bovine Serum (FBS), 2 mM L-glutamine, 100 U/mL penicillin and 100 U/mL streptomycin at 37° C., 5% CO2 and 98% humidity. For the experiments, cells were harvested from subconfluent cultures using trypsinization and resuspended in fresh medium before counting and plating.
(§5) Cells were seeded in 96 well microtiter plates, at 5×10^3 cells per well in aliquots of 150 μL, and allowed to attach to the plate surface for 18 hours (overnight) in drug free medium. After that, one control (untreated) plate of each cell line was fixed (as described below) and used for time zero reference value. […] After 72 hours treatment, the antitumor effect was measured by using the SRB methodology: Briefly, cells were washed twice with PBS, fixed for 15 min in 1% glutaraldehyde solution at room temperature, rinsed twice in PBS, and stained in 0.4% SRB solution for 30 min at room temperature. Cells were then rinsed several times with 1% acetic acid solution and air-dried at room temperature. SRB was then extracted in 10 mM trizma base solution and the absorbance measured in an automated spectrophotometric plate reader at 490 nm. Effects on cell growth and survival were estimated by applying the NCI algorithm (Boyd M R and Pauli K D. Drug Dev Res. 1995, 34, 91-104).
(§6) Using the mean±SD of triplicates, a dose-response curve was automatically generated using nonlinear regression analysis to a 4-parameter logistic curve. Three reference parameters were calculated (NCI algorithm) by automatic interpolation: GI50=compound concentration that produces 50% cell growth inhibition, as compared to control cultures; TGI=total cell growth inhibition (cytostatic effect), as compared to control cultures, and LC50=compound concentration that produces 50% net cell killing (cytotoxic effect).

PSN-1 = assay: SRB colorimetric cytotoxicity assay, PSN-1; conditions: Homo sapiens, pancreatic adenocarcinoma
Source text: as §1, §2, §3, §4, §5, §6

HT29 = assay: SRB colorimetric cytotoxicity assay, HT29; conditions: Homo sapiens, colorectal adenocarcinoma
Source text: as §1, §2, §3, §4, §5, §6

MDA-MB-231 = assay: SRB colorimetric cytotoxicity assay, MDA-MB-231; conditions: Homo sapiens, breast adenocarcinoma
Source text: as §1, §2, §3, §4, §5, §6

[1] = HT-29, 72 h, 72 hours treatment
[2] = MDA-MB-231, 72 h, 72 hours treatment

Row | SMILES | GI50 (A549; A549, 72 h, 72 hours treatment) [nM] | GI50 (PSN-1; PSN1, 72 h, 72 hours treatment) [nM] | GI50 (HT29; [1]) [nM] | GI50 (MDA-MB-231; [2]) [nM] | GI50 (A549; A549, 72 hours treatment) [nM] | GI50 (PSN-1; PSN1, 72 hours treatment) [nM] | GI50 (HT29; HT-29, 72 hours treatment) [nM] | GI50 (MDA-MB-231; MDA-MB-231, 72 hours treatment) [nM]
1 | C=CCOc1cc([C@@H](CCC)NC(=O)[C@]2(C)CSC(/C(C)=N\O)=N2)oc(=O)c1 [Compound 74a] | 8.1 | 12.5 | 7.61 | 9.82 | – | – | – | –
2 | C#CCOc1cc([C@@H](CCC)NC(=O)[C@]2(C)CSC(/C(C)=N/O)=N2)oc(=O)c1 [Compound 75] | 1.01 | 1.18 | 0.962 | 1.38 | – | – | – | –
3 | C#CCOc1cc([C@@H](CCC)NC(=O)[C@]2(C)CSC(/C(C)=N\O)=N2)oc(=O)c1 [Compound 75a] | 2.12 | 2 | 1.18 | 2.71 | – | – | – | –
4 | CCC[C@@H](NC(=O)[C@]1(C)CSC(/C(C)=N/O)=N1)c1cc(OCC2CC2)cc(=O)o1 [Compound 76] | 3.56 | 3.08 | 3.8 | 3.8 | – | – | – | –
5 | CCC[C@@H](NC(=O)[C@]1(C)CSC(/C(C)=N\O)=N1)c1cc(OCC2CC2)cc(=O)o1 [Compound 76a] | 3.8 | 4.51 | 4.27 | 4.51 | – | – | – | –
6 | CCC[C@@H](NC(=O)[C@]1(C)CSC(/C(C)=N/O)=N1)c1cc(N(CC)CC)cc(=O)o1 [Compound 77] | 2150 | 2370 | 1180 | 1960 | – | – | – | –
7 | CCC[C@@H](NC(=O)[C@]1(C)CSC(/C(C)=N/O)=N1)c1cc(C)cc(=O)o1 [Compound 78] | 24.9 | 32.8 | 43.8 | 43.8 | – | – | – | –
8 | C=Cc1cc([C@@H](CCC)NC(=O)[C@]2(C)CSC(/C(C)=N/O)=N2)oc(=O)c1 [Compound 79] | 424 | 477 | 397 | 344 | – | – | – | –
9 | CCC[C@@H](NC(=O)[C@]1(C)CSC(/C(C)=N/O)=N1)c1cc(O)cc(=O)[nH]1 [Compound 82] | 1640 | 355 | 491 | 1120 | – | – | – | –
10 | CCC[C@@H](NC(=O)[C@]1(C)CSC(/C(C)=N/O)=N1)c1cc(OCCOCCOCCOCC)cc(=O)o1 [Compound 87] | 5690 | 7010 | 5500 | 6820 | – | – | – | –
11 | CCC[C@@H](NC(=O)[C@]1(C)CSC(/C(C)=N/O)=N1)c1cc(O)cc(=O)o1 [Compound 88] | 20400 | 18800 | 11400 | 21800 | – | – | – | –
12 | CCC[C@@H](NC(=O)[C@]1(C)CSC(/C(C)=N/O)=N1)c1cc(OCCCN)cc(=O)o1 [Compound 89] | 16500 | 6360 | 8950 | 5890 | – | – | – | –
13 | CCC[C@@H](NC(=O)[C@@H]1CSC(/C(C)=N/O)=N1)c1cc(OC)cc(=O)o1 [Compound 92] | 1550 | 953 | 1280 | 953 | – | – | – | –
14 | C=CCO/N=C(\C)C1=N[C@](C)(C(=O)N[C@H](CCC)c2cc(OC)cc(=O)o2)CS1 [Compound 93] | 21.4 | 28.5 | 23.5 | 38 | – | – | – | –
15 | C#CCO/N=C(\C)C1=N[C@](C)(C(=O)N[C@H](CCC)c2cc(OC)cc(=O)o2)CS1 [Compound 94] | 35.8 | 35.8 | 22.6 | 35.8 | – | – | – | –
16 | CCC[C@@H](NC(=O)[C@]1(C)CSC(/C(C)=N/OC(=O)COCCOCCOC)=N1)c1cc(OC)cc(=O)o1 [Compound 95] | 20.3 | 33.2 | 40.6 | 44.3 | – | – | – | –
17 | CCC[C@@H](NC(=O)[C@]1(C)CSC(/C(C)=N/OCCOCCOCCOCC)=N1)c1cc(OC)cc(=O)o1 [Compound 96] | 1770 | 2220 | 1510 | 2950 | – | – | – | –
18 | CCC[C@@H](NC(=O)[C@]1(C)CSC(/C(C)=N/OCCCNC(=O)OC(C)(C)C)=N1)c1cc(OC)cc(=O)o1 [Compound 97] | 631 | 835 | 594 | 1150 | – | – | – | –
19 | CCC[C@@H](NC(=O)[C@]1(C)CSC(/C(C)=N/OCCCN)=N1)c1cc(OC)cc(=O)o1 [Compound 98] | 22.1 | 27.4 | 25.1 | 34.2 | – | – | – | –
20 | CCC[C@@H](NC(=O)[C@]1(C)CSC(/C(C)=N/N)=N1)c1cc(OC)cc(=O)o1 [Compound 99] | 578 | 920 | 447 | 657 | – | – | – | –
21 | CCC[C@@H](NC(=O)[C@]1(C)COC(/C(C)=N/O)=N1)c1cc(OC)cc(=O)o1 [Compound 106] | 1010 | 1560 | 712 | 876 | – | – | – | –
22 | C=CCOc1cc([C@@H](CCC)NC(=O)[C@]2(C)CSC(/C(C)=N/O[C@H]3O[C@H](COC(C)=O)[C@@H](OC(C)=O)[C@H](OC(C)=O)[C@H]3OC(C)=O)=N2)oc(=O)c1 [Compound 107] | 52.9 | 61 | 52.9 | 78.6 | – | – | – | –
23 | C=CCOc1cc([C@@H](CCC)NC(=O)[C@]2(C)CSC(/C(C)=N/O[C@H]3O[C@@H]4COC(C)(C)O[C@H]4[C@@H]4OC(C)(C)O[C@H]34)=N2)oc(=O)c1 [Compound 110] | 43.1 | 56.9 | 36.9 | 78.5 | – | – | – | –
24 | C=CCOc1cc([C@@H](CCC)NC(=O)[C@]2(C)CSC(/C(C)=N/O[C@H]3O[C@H](CO)[C@@H](O)[C@@H]4OC(C)(C)O[C@H]34)=N2)oc(=O)c1 [Compound 111] | 26.2 | 37.7 | 24.6 | 29.5 | – | – | – | –
25 | C=CCOc1cc([C@@H](CCC)NC(=O)[C@]2(C)CSC(/C(C)=N/O[C@H]3O[C@H](CO)[C@@H](O)[C@H](O)[C@@H]3O)=N2)oc(=O)c1 [Compound 112] | 4040 | 1230 | 1110 | 2110 | – | – | – | –
26 | C=CCOc1cc([C@@H](CCC)NC(=O)[C@]2(C)CSC(/C(C)=N/O[Si](c3ccccc3)(c3ccccc3)C(C)(C)C)=N2)oc(=O)c1 [Compound 113] | – | – | – | – | 15.2 | 14.7 | 5.57 | 8.36
27 | C=CCOc1cc([C@@H](CCC)NC(=O)[C@]2(C)CSC(/C(C)=N/OCCCCO)=N2)oc(=O)c1 [Compound 115] | 11.1 | 13.6 | 5.84 | 11.9 | – | – | – | –
28 | CCC[C@@H](NC(=O)[C@]1(C)CSC(/C(C)=N/CCCNC(=O)OC(C)(C)C)=N1)c1cc(OCC2CC2)cc(=O)o1 [Compound 116] | 302 | 302 | 249 | 195 | – | – | – | –
29 | C=CCOc1cc([C@@H](CCC)NC(=O)[C@]2(C)CSC(C(C)N)=N2)oc(=O)c1 (some centres unmarked) [Compound 117] | 3020 | 4880 | 3490 | 4650 | – | – | – | –
